Experimental data from patent US9611267B2, “Substituted tricyclic compounds as FGFR inhibitors” (Incyte Corporation, priority 2012, dated 2017).

Legend:
Assay type in all cases: biochemical
FGFR3 = FGFR3 (Homo sapiens (Human), UniProt P22607); test: FGFR enzymatic assay (FRET peptide phosphorylation), FGFR3; conditions: FGFR3 enzyme (Millipore), ATP 140 μM
Summary of the method: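 After 5-10 min pre-incubation of FGFR3 with serially diluted compound in pH 7.5 HEPES/MgCl2/EGTA/DTT buffer, the reaction proceeded 1 hr at 25° C. Phosphorylated peptide was detected by FRET, and IC50 was fitted with a variable-slope sigmoid.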

FGFR2 = FGFR2 (Homo sapiens (Human), UniProt P21802); test: FGFR enzymatic assay (FRET peptide phosphorylation), FGFR2; conditions: FGFR2 enzyme 0.01 nM, ATP 100 μM
Chain of FGFR2 (P21802 22-821): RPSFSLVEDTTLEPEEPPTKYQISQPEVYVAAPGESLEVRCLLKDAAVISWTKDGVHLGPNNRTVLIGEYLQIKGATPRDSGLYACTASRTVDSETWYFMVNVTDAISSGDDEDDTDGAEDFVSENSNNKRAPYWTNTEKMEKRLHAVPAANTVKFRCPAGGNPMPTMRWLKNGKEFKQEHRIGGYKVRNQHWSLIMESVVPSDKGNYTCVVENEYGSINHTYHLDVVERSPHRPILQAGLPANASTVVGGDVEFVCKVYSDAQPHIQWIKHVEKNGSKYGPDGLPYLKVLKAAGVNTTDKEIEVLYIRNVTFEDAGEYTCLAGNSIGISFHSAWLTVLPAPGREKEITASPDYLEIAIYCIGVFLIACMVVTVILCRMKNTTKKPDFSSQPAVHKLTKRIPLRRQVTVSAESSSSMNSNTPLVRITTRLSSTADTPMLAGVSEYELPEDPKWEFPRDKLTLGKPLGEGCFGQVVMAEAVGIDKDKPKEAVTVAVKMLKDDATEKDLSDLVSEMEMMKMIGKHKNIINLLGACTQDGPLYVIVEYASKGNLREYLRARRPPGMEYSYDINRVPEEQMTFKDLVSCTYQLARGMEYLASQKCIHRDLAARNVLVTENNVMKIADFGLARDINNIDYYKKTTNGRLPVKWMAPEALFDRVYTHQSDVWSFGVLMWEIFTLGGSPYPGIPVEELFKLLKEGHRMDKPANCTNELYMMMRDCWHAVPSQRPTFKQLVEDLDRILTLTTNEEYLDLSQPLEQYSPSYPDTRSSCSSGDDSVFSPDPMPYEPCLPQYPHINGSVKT
Summary of the method: (§1)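 IC50 values were obtained from variable-slope sigmoidal dose-response fitting of a FRET read-out of peptide phosphorylation. The buffer, described for FGFR3, was 50 mM HEPES pH 7.5 with MgCl2, EGTA, Tween-20 and DTT.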

FGFR1 = FGFR1 (Homo sapiens (Human), UniProt P11362); test: FGFR enzymatic assay (FRET peptide phosphorylation), FGFR1; conditions: FGFR1 enzyme 0.02 nM, ATP 210 μM
Chain of FGFR1 (P11362 22-822): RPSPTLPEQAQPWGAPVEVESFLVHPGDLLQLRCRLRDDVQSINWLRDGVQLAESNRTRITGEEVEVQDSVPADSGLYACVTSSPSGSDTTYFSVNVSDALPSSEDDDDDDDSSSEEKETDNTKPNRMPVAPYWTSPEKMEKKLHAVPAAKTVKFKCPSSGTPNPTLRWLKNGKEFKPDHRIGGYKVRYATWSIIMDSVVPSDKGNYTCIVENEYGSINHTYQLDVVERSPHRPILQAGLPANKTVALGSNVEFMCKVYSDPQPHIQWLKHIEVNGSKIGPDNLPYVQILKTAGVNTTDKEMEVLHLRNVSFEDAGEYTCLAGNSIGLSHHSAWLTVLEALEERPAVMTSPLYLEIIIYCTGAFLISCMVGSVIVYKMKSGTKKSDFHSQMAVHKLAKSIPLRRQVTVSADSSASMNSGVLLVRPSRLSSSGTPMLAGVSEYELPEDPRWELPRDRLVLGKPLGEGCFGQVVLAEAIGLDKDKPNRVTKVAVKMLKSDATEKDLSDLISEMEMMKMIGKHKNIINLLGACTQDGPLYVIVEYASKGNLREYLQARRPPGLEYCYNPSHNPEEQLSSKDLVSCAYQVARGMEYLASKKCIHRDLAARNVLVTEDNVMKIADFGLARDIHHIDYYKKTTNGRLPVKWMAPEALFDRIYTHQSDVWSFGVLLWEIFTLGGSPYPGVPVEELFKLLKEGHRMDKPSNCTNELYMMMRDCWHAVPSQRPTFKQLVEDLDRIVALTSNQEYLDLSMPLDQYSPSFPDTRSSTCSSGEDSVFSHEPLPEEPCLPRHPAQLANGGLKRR
Summary of the method: as §1

Measured: IC50

Chain of FGFR3 (P22607 23-806): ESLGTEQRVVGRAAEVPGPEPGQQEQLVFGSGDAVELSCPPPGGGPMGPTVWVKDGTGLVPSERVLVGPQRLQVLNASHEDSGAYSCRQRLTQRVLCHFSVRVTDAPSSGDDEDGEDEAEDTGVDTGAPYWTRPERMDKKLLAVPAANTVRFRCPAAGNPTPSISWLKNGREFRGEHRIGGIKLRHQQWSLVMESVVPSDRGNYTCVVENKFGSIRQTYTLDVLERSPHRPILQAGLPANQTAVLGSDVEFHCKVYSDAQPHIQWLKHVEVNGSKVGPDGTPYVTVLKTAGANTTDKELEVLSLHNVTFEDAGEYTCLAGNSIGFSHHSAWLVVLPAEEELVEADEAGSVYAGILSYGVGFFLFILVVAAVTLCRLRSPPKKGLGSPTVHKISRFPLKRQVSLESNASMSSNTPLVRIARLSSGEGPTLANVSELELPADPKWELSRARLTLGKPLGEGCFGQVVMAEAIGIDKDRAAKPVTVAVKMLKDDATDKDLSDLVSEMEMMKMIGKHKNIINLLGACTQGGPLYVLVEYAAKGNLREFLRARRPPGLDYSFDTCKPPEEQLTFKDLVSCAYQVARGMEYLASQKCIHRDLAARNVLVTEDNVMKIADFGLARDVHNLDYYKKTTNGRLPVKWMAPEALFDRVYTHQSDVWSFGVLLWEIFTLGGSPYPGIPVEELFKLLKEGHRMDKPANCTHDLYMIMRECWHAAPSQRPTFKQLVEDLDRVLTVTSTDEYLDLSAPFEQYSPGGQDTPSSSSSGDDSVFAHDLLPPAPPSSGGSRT

COc1cc(OC)c(F)c(N2Cc3cnc4[nH]ncc4c3N(Cc3cccc(F)n3)C2=O)c1F [Example 216, 3-(2,6-difluoro-3,5-dimethoxyphenyl)-1-[(6-fluoropyridin-2-yl)methyl]-1,3,4,7-tetrahydro-2H-pyrazolo[4′,3′:5,6]pyrido[4,3-d]pyrimidin-2-one]
< 100 nM: all assays above

COc1cc(OC)c(F)c(N2Cc3cnc4[nH]ncc4c3N(Cc3cccc(C)n3)C2=O)c1F [Example 217, 3-(2,6-difluoro-3,5-dimethoxyphenyl)-1-[(6-methylpyridin-2-yl)methyl]-1,3,4,7-tetrahydro-2H-pyrazolo[4′,3′:5,6]pyrido[4,3-d]pyrimidin-2-one]
< 100 nM: all assays above

COc1cc(OC)c(F)c(N2Cc3cnc4[nH]ncc4c3N(c3ncccc3F)C2=O)c1F [Example 218, 3-(2,6-Difluoro-3,5-dimethoxyphenyl)-1-(3-fluoropyridin-2-yl)-1,3,4,7-tetrahydro-2H-pyrazolo[4′,3′:5,6]pyrido[4,3-d]pyrimidin-2-one]
< 100 nM: all assays above

CCN1C(=O)N(c2c(F)c(OC)cc(OC)c2F)Cc2cnc3[nH]c(Cn4ccccc4=O)cc3c21 [Example 219, 3-(2,6-difluoro-3,5-dimethoxyphenyl)-1-ethyl-8-[(2-oxopyridin-1(2H)-yl)methyl]-1,3,4,7-tetrahydro-2H-pyrrolo[3′,2′:5,6]pyrido[4,3-d]pyrimidin-2-one]
< 100 nM: all assays above

CCN1C(=O)N(c2c(F)c(OC)cc(OC)c2F)Cc2cnc3[nH]c(COc4cccnc4)cc3c21 [Example 220, 3-(2,6-difluoro-3,5-dimethoxyphenyl)-1-ethyl-8-[(pyridin-3-yloxy)methyl]-1,3,4,7-tetrahydro-2H-pyrrolo[3′,2′:5,6]pyrido[4,3-d]pyrimidin-2-one]
< 100 nM: all assays above

COc1cc(OC)c(F)c(N2Cc3cnc4[nH]c(CN5CCOCC5)cc4c3N(CCO)C2=O)c1F [Example 221, 3-(2,6-difluoro-3,5-dimethoxyphenyl)-1-(2-hydroxyethyl)-8-(morpholin-4-ylmethyl)-1,3,4,7-tetrahydro-2H-pyrrolo[3′,2′:5,6]pyrido[4,3-d]pyrimidin-2-one]
< 100 nM: all assays above

COc1cc(OC)c(F)c(N2Cc3cnc4[nH]c(CCN5CCOCC5)cc4c3N(c3cccc(F)c3F)C2=O)c1F [Example 222, 3-(2,6-difluoro-3,5-dimethoxyphenyl)-1-(2,3-difluorophenyl)-8-(2-morpholin-4-ylethyl)-1,3,4,7-tetrahydro-2H-pyrrolo[3′,2′:5,6]pyrido[4,3-d]pyrimidin-2-one]
< 100 nM: all assays above

COc1cc(OC)c(F)c(N2Cc3cnc4[nH]c(CCN5CCN(C)CC5)cc4c3N(c3cccc(F)c3F)C2=O)c1F [Example 223, 3-(2,6-difluoro-3,5-dimethoxyphenyl)-1-(2,3-difluorophenyl)-8-[2-(4-methylpiperazin-1-yl)ethyl]-1,3,4,7-tetrahydro-2H-pyrrolo[3′,2′:5,6]pyrido[4,3-d]pyrimidin-2-one]
< 100 nM: all assays above

CCN1CCN(CCc2cc3c4c(cnc3[nH]2)CN(c2c(F)c(OC)cc(OC)c2F)C(=O)N4c2cccc(F)c2F)CC1 [Example 224, 3-(2,6-difluoro-3,5-dimethoxyphenyl)-1-(2,3-difluorophenyl)-8-[2-(4-ethylpiperazin-1-yl)ethyl]-1,3,4,7-tetrahydro-2H-pyrrolo[3′,2′:5,6]pyrido[4,3-d]pyrimidin-2-one]
< 100 nM: all assays above

COc1cc(OC)c(F)c(N2Cc3cnc4[nH]c(CCN5CCOCC5)cc4c3N(c3ccc(F)cc3)C2=O)c1F [Example 225, 3-(2,6-difluoro-3,5-dimethoxyphenyl)-1-(4-fluorophenyl)-8-(2-morpholin-4-ylethyl)-1,3,4,7-tetrahydro-2H-pyrrolo[3′,2′:5,6]pyrido[4,3-d]pyrimidin-2-one]
< 100 nM: all assays above

COc1cc(OC)c(F)c(N2Cc3cnc4[nH]c(CCN5CCN(C)CC5)cc4c3N(c3ccc(F)cc3)C2=O)c1F [Example 226, 3-(2,6-difluoro-3,5-dimethoxyphenyl)-1-(4-fluorophenyl)-8-[2-(4-methylpiperazin-1-yl)ethyl]-1,3,4,7-tetrahydro-2H-pyrrolo[3′,2′:5,6]pyrido[4,3-d]pyrimidin-2-one]
< 100 nM: all assays above

COc1cc(OC)c(F)c(N2Cc3cnc4[nH]c(CCN5CCOCC5)cc4c3N(c3cccc(F)c3)C2=O)c1F [Example 227, 3-(2,6-difluoro-3,5-dimethoxyphenyl)-1-(3-fluorophenyl)-8-(2-morpholin-4-ylethyl)-1,3,4,7-tetrahydro-2H-pyrrolo[3′,2′:5,6]pyrido[4,3-d]pyrimidin-2-one]
< 100 nM: all assays above

COc1cc(OC)c(F)c(N2Cc3cnc4[nH]c(CCN5CCN(C)CC5)cc4c3N(c3cccc(F)c3)C2=O)c1F [Example 228, 3-(2,6-difluoro-3,5-dimethoxyphenyl)-1-(3-fluorophenyl)-8-[2-(4-methylpiperazin-1-yl)ethyl]-1,3,4,7-tetrahydro-2H-pyrrolo[3′,2′:5,6]pyrido[4,3-d]pyrimidin-2-one]
< 100 nM: all assays above

CCN1CCN(CCc2cc3c4c(cnc3[nH]2)CN(c2c(F)c(OC)cc(OC)c2F)C(=O)N4c2cccc(F)c2)CC1 [Example 229, 3-(2,6-difluoro-3,5-dimethoxyphenyl)-1-(3-fluorophenyl)-8-[2-(4-ethylpiperazin-1-yl)ethyl]-1,3,4,7-tetrahydro-2H-pyrrolo[3′,2′:5,6]pyrido[4,3-d]pyrimidin-2-one]
< 100 nM: all assays above

CCN1C(=O)N(c2c(F)c(OC)cc(OC)c2F)Cc2cnc3[nH]c(CCN4CC(C#N)C4)cc3c21 [Example 230, 1-{2-[3-(2,6-difluoro-3,5-dimethoxyphenyl)-1-ethyl-2-oxo-2,3,4,7-tetrahydro-1H-pyrrolo[3′,2′:5,6]pyrido[4,3-d]pyrimidin-8-yl]ethyl}azetidine-3-carbonitrile]
< 100 nM: all assays above

CCN1C(=O)N(c2c(F)c(OC)cc(OC)c2F)Cc2cnc3[nH]c(CCN4CC(F)C4)cc3c21 [Example 231, 3-(2,6-difluoro-3,5-dimethoxyphenyl)-1-ethyl-8-[2-(3-fluoroazetidin-1-yl)ethyl]-1,3,4,7-tetrahydro-2H-pyrrolo[3′,2′:5,6]pyrido[4,3-d]pyrimidin-2-one]
< 100 nM: all assays above

COc1cc(OC)c(F)c(N2Cc3cnc4[nH]c(CN5CCOCC5)cc4c3N(CCF)C2=O)c1F [Example 232, 3-(2,6-difluoro-3,5-dimethoxyphenyl)-1-(2-fluoroethyl)-8-(morpholin-4-ylmethyl)-1,3,4,7-tetrahydro-2H-pyrrolo[3′,2′:5,6]pyrido[4,3-d]pyrimidin-2-one]
< 100 nM: all assays above

COc1cc(OC)c(F)c(N2Cc3cnc4[nH]c(CN5CCN(C)CC5)cc4c3N(CCF)C2=O)c1F [Example 233, 3-(2,6-difluoro-3,5-dimethoxyphenyl)-1-(2-fluoroethyl)-8-[(4-methylpiperazin-1-yl)methyl]-1,3,4,7-tetrahydro-2H-pyrrolo[3′,2′:5,6]pyrido[4,3-d]pyrimidin-2-one]
< 100 nM: all assays above
